These results are taken from patent US8642770B2, “Indole derivative” (Takeda Pharmaceutical Company Limited, priority 2010, dated 2014).

As to `Cn1c(CN[C@H]2CC[C@](C)(O)CC2)cc2cc(NC(=O)c3ccc(OCC4CCOC4)cc3)ccc21` (stereo partly drawn) [Example 24, N-(2-{[(trans-4-hydroxy-4-methylcyclohexyl)amino]methyl}-1-methyl-1H-indol-5-yl)-4-(tetrahydrofuran-3-ylmethoxy)benzamide], the melting point was in the range of 181 to 182 °C.

In the case of `Cc1c(CNCC(C)(C)O)n(C)c2ccc(NC(=O)c3ccc(OC[C@@H]4CCCO4)cc3)cc12` [Example 36, N-(2-{[(2-hydroxy-2-methylpropyl)amino]methyl}-1,3-dimethyl-1H-indol-5-yl)-4-[(2S)-tetrahydrofuran-2-ylmethoxy]benzamide], the melting point was in the range of 145 to 146 °C.

`Cn1c(CNCC(C)(C)O)cc2cc(NC(=O)c3ccc(OCC4CCOC4)cc3)ccc21` (stereo not drawn) [Example 25, N-(2-{[(2-hydroxy-2-methylpropyl)amino]methyl}-1-methyl-1H-indol-5-yl)-4-(tetrahydrofuran-3-ylmethoxy)benzamide] showed a melting point of 169 °C.

Turning to `Cc1c(NC(=O)c2ccc(OC[C@@H]3CCCO3)cc2)ccc2cc(CNCC(C)(C)C)n(C)c12` [Example 81, N-(2-{[(2,2-dimethylpropyl)amino]methyl}-1,7-dimethyl-1H-indol-6-yl)-4-[(2S)-tetrahydrofuran-2-ylmethoxy]benzamide], the melting point amounted to 201 °C.

For `Cc1c(CN[C@H]2CC[C@](C)(O)CC2)n(C)c2ccc(NC(=O)c3ccc(OCC4CC4)cc3)cc12` [Example 42, 4-(cyclopropylmethoxy)-N-(2-{[(trans-4-hydroxy-4-methylcyclohexyl)amino]methyl}-1,3-dimethyl-1H-indol-5-yl)benzamide], the melting point worked out at 191 °C.

Molecule `Cc1c(CNCC(C)C)[nH]c2c(F)c(NC(=O)c3ccc(OC[C@@H]4CCCO4)cc3)ccc12` [Example 104, N-(7-fluoro-2-{[(2-methylpropyl)amino]methyl}-3-methyl-1H-indol-6-yl)-4-[(2S)-tetrahydrofuran-2-ylmethoxy]benzamide] showed a melting point of 134 to 135 °C.

In turn, `Cc1c(CN[C@H]2CC[C@](C)(O)CC2)[nH]c2c(C)c(NC(=O)c3ccc(OC[C@@H]4CCCO4)cc3F)ccc12` [Example 102, 2-fluoro-N-(2-{[(trans-4-hydroxy-4-methylcyclohexyl)amino]methyl}-3,7-dimethyl-1H-indol-6-yl)-4-[(2S)-tetrahydrofuran-2-ylmethoxy]benzamide] had a melting point of 177 to 178 °C.

`Cn1c(CNCC(C)(C)O)cc2cc(NC(=O)c3ccc(OC[C@@H]4CCCO4)cc3)ccc21` [Example 19, N-(2-{[(2-hydroxy-2-methylpropyl)amino]methyl}-1-methyl-1H-indol-5-yl)-4-[(2S)-tetrahydrofuran-2-ylmethoxy]benzamide] gave a melting point of 188 to 190 °C.

With `Cc1c(NC(=O)c2ccc(C#CC3(O)CCC3)cc2)ccc2cc(CNCC(C)(C)C)n(C)c12` [Example 93, N-(2-{[(2,2-dimethylpropyl)amino]methyl}-1,7-dimethyl-1H-indol-6-yl)-4-[(1-hydroxycyclobutyl)ethynyl]benzamide], the melting point was in the range of 232 to 233 °C.
